Source: PubChem BioAssay (NCI)
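Results reflect a 48-hour exposure of cells in 96-well plates to compound at five concentrations. Abbreviation: GI50, concentration required for 50% inhibition of growth. At the TGI there is no net growth.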

Tests used:
Experiment in all cases: inhibition of tumour cell growth, NCI panel, 48 h
K-562 leukemia = tested on: K-562 leukemia
MALME-3M melanoma = tested on: MALME-3M melanoma
MOLT-4 leukemia = tested on: MOLT-4 leukemia
NCI-H522 lung = tested on: NCI-H522 lung
RPMI-8226 leukemia = tested on: RPMI-8226 leukemia
SF-539 CNS = tested on: SF-539 CNS
SK-MEL-28 melanoma = tested on: SK-MEL-28 melanoma
SNB-75 CNS = tested on: SNB-75 CNS
UACC-257 melanoma = tested on: UACC-257 melanoma
NCI/ADR-RES ovarian = tested on: NCI/ADR-RES ovarian

Compound | TGI (K-562 leukemia) | TGI (MALME-3M melanoma) | TGI (MOLT-4 leukemia) | TGI (NCI-H522 lung) | TGI (RPMI-8226 leukemia) | TGI (SF-539 CNS) | TGI (SK-MEL-28 melanoma) | TGI (SNB-75 CNS) | TGI (UACC-257 melanoma) | GI50 (K-562 leukemia) | GI50 (MOLT-4 leukemia) | GI50 (NCI-H522 lung) | GI50 (NCI/ADR-RES ovarian) | TGI (NCI/ADR-RES ovarian) | GI50 (RPMI-8226 leukemia) | GI50 (SF-539 CNS) | GI50 (SK-MEL-28 melanoma) | GI50 (SNB-75 CNS) | GI50 (UACC-257 melanoma) | GI50 (MALME-3M melanoma)
COc1cc2oc(-c3ccc(O)cc3)cc(=O)c2c(O)c1C1OC(CO)C(O)C(O)C1O (stereo unspecified) | > 100 µM | > 100 µM | > 100 µM | > 100 µM | > 100 µM | > 100 µM | > 100 µM | > 100 µM | > 100 µM | – | – | – | – | – | – | – | – | – | – | –
C[C@]12CC[C@H]3[C@@H](CCC4=CC(=O)CC[C@@]43C)[C@@H]1CC[C@@H]2c1csc(N)n1 | > 100 µM | – | 11.2 µM | 24.9 µM | 26.2 µM | 27 µM | 26 µM | 24.2 µM | 13 µM | 2.33 µM | 2.5 µM | 7.18 µM | 2.54 µM | 22.4 µM | 1.21 µM | 9.2 µM | 10 µM | 8.62 µM | 2.75 µM | –
C[C@]12Cc3cn[nH]c3C(=O)C1CC[C@@H]1C2CC[C@@]2(C)C1CC[C@@H]2O (stereo partly specified) | > 100 µM | > 100 µM | > 100 µM | > 100 µM | > 100 µM | > 100 µM | > 100 µM | > 100 µM | > 100 µM | – | – | – | – | – | – | – | – | – | – | –
NNC(=O)C(=O)N/N=C1/CCCC1C(=O)CCC(=O)Nc1ccc(Cl)cc1 (stereo unspecified) | > 100 µM | > 100 µM | > 100 µM | > 100 µM | > 100 µM | > 100 µM | > 100 µM | > 100 µM | > 100 µM | – | – | – | – | – | – | – | – | – | – | –
COC(=O)CCC(NC(=S)N/N=C/c1cccs1)C(=O)OC (stereo unspecified) | > 100 µM | > 100 µM | – | > 100 µM | – | > 100 µM | > 100 µM | > 100 µM | > 100 µM | – | – | – | – | – | – | – | – | – | – | –
O=c1/c(=C/c2ccccc2[N+](=O)[O-])sc2nnc(-c3cccnc3)n12 | > 100 µM | > 100 µM | > 100 µM | – | > 100 µM | > 100 µM | > 100 µM | > 100 µM | > 100 µM | – | – | – | – | – | – | – | – | – | – | –
O=[N+]([O-])c1ccc(Cl)c2c([N+](=O)[O-])cccc12 | > 10 µM | > 10 µM | > 10 µM | – | > 10 µM | 5.91 µM | > 10 µM | > 10 µM | – | – | – | – | – | – | – | – | – | – | – | –
Nc1ncc(Cc2ccc3c(c2)OCO3)c(N)n1 | > 100 µM | > 100 µM | > 100 µM | – | > 100 µM | > 100 µM | > 100 µM | – | > 100 µM | – | – | – | – | > 100 µM | – | – | – | – | – | –
COC(=O)/C=C(/C(=O)OC)C1(C)c2cc(C(=O)OC)c(C(=O)OC)c(N)c2C(=N)N1c1ccccc1 (stereo unspecified) | 51.7 µM | 32.7 µM | 46.2 µM | 27.8 µM | 57.6 µM | 48.9 µM | 36.5 µM | 81 µM | – | – | – | – | – | – | – | – | – | – | – | –
COC(=O)OC1C(O[C@H]2C[C@H]3[C@@H]4CC=C5C[C@@H](O)CC[C@]5(C)[C@H]4CC[C@]3(C)[C@H]2[C@H](C)C(=O)CCC(C)C)OCC(O)C1OC1OCC(O)C(O)C1OC(=O)c1ccc(OC)cc1 (stereo partly specified) | – | 0.769 µM | 0.0178 µM | 0.183 µM | 0.00491 µM | 0.0091 µM | 0.0161 µM | 3.77 µM | 0.0562 µM | – | 0.00695 µM | 0.0146 µM | > 27.5 µM | > 27.5 µM | < 0.00275 µM | < 0.00275 µM | 0.0043 µM | < 0.00275 µM | 0.00543 µM | 0.0184 µM
